According to patent publication US9049864B2, “Pyridazinone herbicidal compounds” (Syngenta Limited, priority 2012, dated 2015):

What was measured:
Experiment in all cases: Post-emergence herbicidal glasshouse test, percentage damage to the plant
Assay type in all cases: in vivo
Conditions in all cases: post-emergence, 1000 g/ha, evaluated after 13 days
Solanum nigrum (SOLNI) = system: Solanum nigrum (SOLNI)
Protocol: (§1) Seeds of a variety of test species are sown in standard soil in pots:—Solanum nigrum (SOLNI), Amaranthus retoflexus (AMARE), Setaria faberi (SETFA), Alopecurus myosuroides (ALOMY), Echinochloa crus-galli (ECHCG), Ipomoea hederacea (IPOHE). After 8 days cultivation (post-emergence) under controlled conditions in a glasshouse (at 24/16° C., day/night; 14 hours light; 65% humidity), the plants are sprayed with an aqueous spray solution derived from the formulation of the technical active ingredient in acetone/water (50:50) solution containing 0.5% Tween 20 (polyoxyethelyene sorbitan monolaurate, CAS RN 9005-64-5). Compounds are applied at 1000 g/ha. The test plants are then grown in a glasshouse under controlled conditions in a glasshouse (at 24/16° C., day/night; 14 hours light; 65% humidity) and watered twice daily. After 13 days, the test is evaluated for the percentage damage caused to the plant. The biological activities are shown in the following table on a five point scale (5=80-100%; 4=60-79%; 3=40-59%; 2=20-39%; 1=0-19%). A comparative experiment is conducted to compare the biological efficacy of a compound of the present invention with those of WO 2011/045271. The test is performed as outlined above using the following compounds. Three different application rates are employed (250 g/ha, 500 g/ha and 1000 g/ha).

Setaria faberi (SETFA) = system: Setaria faberi (SETFA)
Protocol: as §1

[1] = system: Echinochloa crus-galli (ECHCG)
Protocol: as §1

[2] = system: Amaranthus retoflexus (AMARE)
Protocol: as §1

[3] = system: Alopecurus myosuroides (ALOMY)
Protocol: as §1

[4] = system: Ipomoea hederacea (IPOHE)
Protocol: as §1

Row | SMILES | POST Application SOLNI, percentage damage (five point scale) (Solanum nigrum (SOLNI)) | POST Application SETFA, percentage damage (five point scale) (Setaria faberi (SETFA)) | POST Application ECHCG, percentage damage (five point scale) [1] | POST Application AMARE, percentage damage (five point scale) [2] | POST Application ALOMY, percentage damage (five point scale) [3] | POST Application IPOHE, percentage damage (five point scale) [4]
1 | CN1N=C(C2CC2)C(=O)C(n2c(Cl)c(Cl)c3ccccc32)C1=O (stereo not drawn) [Compound 2.026] | 5 (5=80-100%) | 2 (2=20-39%) | 1 (1=0-19%) | 4 (4=60-79%) | 1 (1=0-19%) | 5 (5=80-100%)
2 | CCC1=NN(C)C(=O)C(n2c(Cl)c(Cl)c3ccccc32)C1=O (stereo not drawn) [Compound 2.027] | 5 (5=80-100%) | 1 (1=0-19%) | 1 (1=0-19%) | 4 (4=60-79%) | 1 (1=0-19%) | 5 (5=80-100%)
3 | CN1N=C(Br)C(=O)C(n2c(Cl)c(Cl)c3ccccc32)C1=O (stereo not drawn) [Compound 2.028] | 5 (5=80-100%) | 1 (1=0-19%) | 1 (1=0-19%) | 5 (5=80-100%) | 1 (1=0-19%) | 5 (5=80-100%)
4 | Cc1nn(C)c(=O)c(-n2c(Cl)c(Cl)c3ccccc32)c1OC(=O)SC(C)C [Compound 3.001, [5-(2,3-dichloroindol-1-yl)-1,3-dimethyl-6-oxo-pyridazin-4-yl]isopropylsulfanylformate] | 5 (5=80-100%) | 1 (1=0-19%) | 1 (1=0-19%) | 5 (5=80-100%) | 1 (1=0-19%) | 5 (5=80-100%)
5 | Cc1nn(C)c(=O)c(-n2c(Cl)c(Cl)c3ccccc32)c1OC(=O)N1CCOCC1 [Compound 3.002] | 5 (5=80-100%) | 1 (1=0-19%) | 1 (1=0-19%) | 2 (2=20-39%) | 1 (1=0-19%) | 5 (5=80-100%)
6 | Cc1nn(C)c(=O)c(-n2c(Cl)c(Cl)c3ccccc32)c1OC(=O)C(C)C [Compound 3.003] | 5 (5=80-100%) | 1 (1=0-19%) | 4 (4=60-79%) | 5 (5=80-100%) | 1 (1=0-19%) | 5 (5=80-100%)
7 | COC(=O)Oc1c(C)nn(C)c(=O)c1-n1c(Cl)c(Cl)c2ccccc21 [Compound 3.004] | 5 (5=80-100%) | 2 (2=20-39%) | 4 (4=60-79%) | 5 (5=80-100%) | 2 (2=20-39%) | 5 (5=80-100%)
8 | COC(=O)Oc1c(C)nn(C)c(=O)c1-n1nc(Cl)c2ccccc21 [Compound 3.005] | 5 (5=80-100%) | 1 (1=0-19%) | 3 (3=40-59%) | 4 (4=60-79%) | 1 (1=0-19%) | 5 (5=80-100%)
9 | CC(=O)Oc1c(C)nn(C)c(=O)c1-n1nc(Cl)c2ccccc21 [Compound 3.006] | 5 (5=80-100%) | 1 (1=0-19%) | 4 (4=60-79%) | 4 (4=60-79%) | 2 (2=20-39%) | 5 (5=80-100%)
10 | Cc1nn(C)c(=O)c(-n2c(Cl)c(Cl)c3ccccc32)c1OC(=O)SC(C)(C)C [Compound 3.007] | 5 (5=80-100%) | 1 (1=0-19%) | 1 (1=0-19%) | 5 (5=80-100%) | 1 (1=0-19%) | 5 (5=80-100%)
